# Experimental data reported in paper PMC6424229, “^68Ga-FAPI PET/CT: Biodistribution and Preliminary Dosimetry Estimate of 2 DOTA-Containing FAP-Targeting Agents in Patients with Various Cancers” (Journal of Nuclear Medicine, 2019).
# Values joined by “and” are separate entries in the source; they are usually repeats but may differ in a detail not shown here. Equal values may be shown once. Read-outs that look alike come from different tables or passages of the source.
# Key:
# [1] = Radiation dosimetry estimate from serial PET/CT (QDOSE; OLINDA 1.1, IDAC-Dose 1.0/2.1); type: in vivo, patients; conditions: for Radiation exposure (effective dose) per 100 MBq: PET; for Radiation exposure (effective dose) per 100 MBq / Effective dose / Dosimetry estimate (OLINDA), Red marrow / Dosimetry estimate (OLINDA), Adrenals / Dosimetry estimate (OLINDA), Brain / Dosimetry estimate (OLINDA), Breasts / Dosimetry estimate (OLINDA), Gallbladder wall / Dosimetry estimate (OLINDA), Heart wall / Dosimetry estimate (OLINDA), Kidneys / Dosimetry estimate (OLINDA), Liver / Dosimetry estimate (OLINDA), Lower large intestine wall / Dosimetry estimate (OLINDA), Lungs / Dosimetry estimate (OLINDA), Muscle / Dosimetry estimate (OLINDA), Osteogenic cells / Dosimetry estimate (OLINDA), Ovaries / Dosimetry estimate (OLINDA), Pancreas / Dosimetry estimate (OLINDA), Skin / Dosimetry estimate (OLINDA), Small intestine / Dosimetry estimate (OLINDA), Spleen / Dosimetry estimate (OLINDA), Stomach wall / Dosimetry estimate (OLINDA), Testes / Dosimetry estimate (OLINDA), Thymus / Dosimetry estimate (OLINDA), Thyroid / Dosimetry estimate (OLINDA), Upper large intestine wall / Dosimetry estimate (OLINDA), Urinary bladder wall / Dosimetry estimate (OLINDA), Uterus / Dosimetry estimate (OLINDA), Total body: one patient per tracer; for Equivalent dose / radiation dose of one examination: examination with 200 MBq of 68Ga; for Dosimetry estimate (OLINDA), Red marrow: approximated from PET volume of interest in a lumbar vertebra; for Dosimetry estimate (OLINDA), Red marrow / Dosimetry estimate (OLINDA), Adrenals / Dosimetry estimate (OLINDA), Brain / Dosimetry estimate (OLINDA), Breasts / Dosimetry estimate (OLINDA), Gallbladder wall / Dosimetry estimate (OLINDA), Heart wall / Dosimetry estimate (OLINDA), Kidneys / Dosimetry estimate (OLINDA), Liver / Dosimetry estimate (OLINDA), Lower large intestine wall / Dosimetry estimate (OLINDA), Lungs / Dosimetry estimate (OLINDA), Muscle / Dosimetry estimate (OLINDA), Osteogenic cells / Dosimetry estimate (OLINDA), Ovaries / Dosimetry estimate (OLINDA), Pancreas / Dosimetry estimate (OLINDA), Skin / Dosimetry estimate (OLINDA), Small intestine / Dosimetry estimate (OLINDA), Spleen / Dosimetry estimate (OLINDA), Stomach wall / Dosimetry estimate (OLINDA), Testes / Dosimetry estimate (OLINDA), Thymus / Dosimetry estimate (OLINDA), Thyroid / Dosimetry estimate (OLINDA), Upper large intestine wall / Dosimetry estimate (OLINDA), Urinary bladder wall / Dosimetry estimate (OLINDA), Uterus / Dosimetry estimate (OLINDA), Total body: unit not given; for Dosimetry estimate (OLINDA), Adrenals / Dosimetry estimate (OLINDA), Brain / Dosimetry estimate (OLINDA), Breasts / Dosimetry estimate (OLINDA), Gallbladder wall / Dosimetry estimate (OLINDA), Heart wall / Dosimetry estimate (OLINDA), Kidneys / Dosimetry estimate (OLINDA), Liver / Dosimetry estimate (OLINDA), Lower large intestine wall / Dosimetry estimate (OLINDA), Lungs / Dosimetry estimate (OLINDA), Muscle / Dosimetry estimate (OLINDA), Osteogenic cells / Dosimetry estimate (OLINDA), Ovaries / Dosimetry estimate (OLINDA), Pancreas / Dosimetry estimate (OLINDA), Skin / Dosimetry estimate (OLINDA), Small intestine / Dosimetry estimate (OLINDA), Spleen / Dosimetry estimate (OLINDA), Stomach wall / Dosimetry estimate (OLINDA), Testes / Dosimetry estimate (OLINDA), Thymus / Dosimetry estimate (OLINDA), Thyroid / Dosimetry estimate (OLINDA), Upper large intestine wall / Dosimetry estimate (OLINDA), Urinary bladder wall / Dosimetry estimate (OLINDA), Uterus: organ dose
# Experimental: (§1) To approximate the dosimetry, imaging was performed 10 min, 1 h, and 3 h after injection of 306 MBq of ^68Ga-FAPI-2 in one patient and 258 MBq of ^68Ga-FAPI-4 in another patient.
# The dosimetry analysis was performed using the QDOSE dosimetry software suite (ABX-CRO). Kidneys, liver, spleen, urinary bladder content, red marrow, heart content, and remainder of body were included as source organs. Because of blood sampling failure due to poor vein conditions, the red marrow dose was approximated using the activity segmented with volume-of-interest technique in the PET scans. The non–tumor-affected lumbar vertebrae 5 (^68Ga-FAPI-2) and 4 (^68Ga-FAPI-4) were assumed to contain 2.46% of the total red marrow ([6]). Using QDOSE, all CT images were coregistered using an automatic deformable coregistration. PET images were coupled to the CT images of the corresponding imaging session. The PET images were transformed according to the transformation matrix of the coupled CT. The volumes of interest of all segmented source organs were drawn in the examination that had the best organ delineation and then were copied onto all other time points to calculate the time–activity curves. Monoexponential curve fitting was then applied to all organ time–activity curves. The cumulative activity Ã between time 0 and the first measured time point was calculated assuming a linear increase from 0 to the first measured activity. The Ã between the first measured time point and the last measured time point was integrated numerically using trapezoidal approximation. The Ã from the last measured time point to infinity was integrated using the fitted function. The total-body Ã was based on the injected activity and the calculated effective half-life in a total-field-of-view volume of interest, assuming that the limbs behave similar to the torso. This approach was chosen because some parts of the body were not in the field of view of the PET/CT device. The Ã values of total body and red marrow were added as organs into QDOSE. The Ã of the remainder of the body was then automatically calculated by subtracting all source-organ Ã values from the total-body Ã. All source-organ residence times were calculated by dividing the Ã by the injected activity. Absorbed and effective dose calculations were performed using the International Commission on Radiological Protection (ICRP)–endorsed IDAC-Dose 2.1 and IDAC-Dose 1.0 ([7]), which are integrated in QDOSE. In addition, the residence times of all included source organs and remainder of body were exported as an OLINDA case file for dose calculation in OLINDA 1.1 ([8]). Both IDAC-Dose 1.0 and OLINDA 1.1 are based on the Cristy–Eckerman stylized phantom series ([9]). IDAC-Dose 2.1 is based on the ICRP adult reference computational phantoms ([10]) and the ICRP-specific absorbed fractions ([11]). Organ masses were not adapted to individual subject organ masses.
# tumor lesions [2] = assay: Serial PET/CT 10 min, 1 h and 3 h after injection (tracer kinetics, tumor retention); type: in vivo, patients; conditions: mean; one patient with metastasized breast cancer per tracer
# Experimental: as §1
# tumor lesions [3] = assay: PET/CT tumor uptake (SUVmax) 1 h after injection; conditions: not statistically significant; for Uptake by tumors, average SUVmax: interindividual comparison, 25 patients per tracer
# [4] = PET/CT normal-organ / background uptake (SUVmax) 1 h after injection; conditions: for Unspecific uptake in locations of wound healing after surgical intervention, average SUVmax: interindividual comparison, 25 patients per tracer, not statistically significant
# [5] = literature value, cited from earlier work
# [6] = intraindividual comparison of 6 patients
SMILES,Radiation exposure (effective dose) per 100 MBq [1],Effective dose ([1]; calculated with IDAC1/ICRP60) [mSv/MBq],Effective dose ([1]; calculated with IDAC2/ICRP103) [mSv/MBq],Effective dose ([1]; calculated with OLINDA),Equivalent dose / radiation dose of one examination [1],"Dosimetry estimate (OLINDA), Red marrow [1]","Dosimetry estimate (OLINDA), Adrenals [1]","Dosimetry estimate (OLINDA), Brain [1]","Dosimetry estimate (OLINDA), Breasts [1]","Dosimetry estimate (OLINDA), Gallbladder wall [1]","Dosimetry estimate (OLINDA), Heart wall [1]","Dosimetry estimate (OLINDA), Kidneys [1]","Dosimetry estimate (OLINDA), Liver [1]","Dosimetry estimate (OLINDA), Lower large intestine wall [1]","Dosimetry estimate (OLINDA), Lungs [1]","Dosimetry estimate (OLINDA), Muscle [1]","Dosimetry estimate (OLINDA), Osteogenic cells [1]","Dosimetry estimate (OLINDA), Ovaries [1]","Dosimetry estimate (OLINDA), Pancreas [1]","Dosimetry estimate (OLINDA), Skin [1]",other results
"N#C[C@@H]1CC(F)(F)CN1C(=O)CNC(=O)c1ccnc2ccc(OCCCN3CCN(C(=O)CN4CCN(CC(=O)O)CCN(CC(=O)O)CCN(CC(=O)O)CC4)CC3)cc12 [^68Ga-FAPI-4, metal not drawn]",1.8 mSv/100 MBq and 1.4–1.8 mSv/100 MBq,1.66E−2,1.35E−2,1.64E−2 mSv/MBq and 1.64E−02 mSv/MBq,3–4 mSv,2.08E−02,1.12E−02,9.11E−03,8.88E−03,1.13E−02,2.02E−02,4.43E−02,1.46E−02,1.17E−02,9.89E−03,9.91E−03,2.16E−02,1.19E−02,1.13E−02,8.63E−03,"Dosimetry estimate (OLINDA), Small intestine [1]: 1.13E−02; Dosimetry estimate (OLINDA), Spleen [1]: 1.05E−02; Dosimetry estimate (OLINDA), Stomach wall [1]: 1.06E−02; Dosimetry estimate (OLINDA), Testes [1]: 1.01E−02; Dosimetry estimate (OLINDA), Thymus [1]: 1.01E−02; Dosimetry estimate (OLINDA), Thyroid [1]: 9.82E−03; Dosimetry estimate (OLINDA), Upper large intestine wall [1]: 1.11E−02; Dosimetry estimate (OLINDA), Urinary bladder wall [1]: 9.91E−02; Dosimetry estimate (OLINDA), Uterus [1]: 1.30E−02; Dosimetry estimate (OLINDA), Total body [1]: 1.09E−02; Decline of tumor uptake (washout) from 1 h to 3 h after injection (tumor lesions [2]): 25%; Uptake by tumors, average SUVmax (tumor lesions [3]): 10.07; Unspecific uptake in locations of wound healing after surgical intervention, average SUVmax [4]: 6.76"
"N#C[C@@H]1CCCN1C(=O)CNC(=O)c1ccnc2ccc(OCCCN3CCN(C(=O)CN4CCN(CC(=O)O)CCN(CC(=O)O)CCN(CC(=O)O)CC4)CC3)cc12 [^68Ga-FAPI-2, metal not drawn]",1.4 mSv/100 MBq and 1.4–1.8 mSv/100 MBq,1.82E−2,1.79E−2,1.80E−2 mSv/MBq and 1.80E−02 mSv/MBq,3–4 mSv,3.28E−02,1.23E−02,9.54E−03,9.58E−03,1.19E−02,4.73E−02,4.45E−02,1.51E−02,1.23E−02,1.09E−02,1.04E−02,2.94E−02,1.24E−02,1.23E−02,9.01E−03,"Dosimetry estimate (OLINDA), Small intestine [1]: 1.19E−02; Dosimetry estimate (OLINDA), Spleen [1]: 2.62E−02; Dosimetry estimate (OLINDA), Stomach wall [1]: 1.13E−02; Dosimetry estimate (OLINDA), Testes [1]: 1.04E−02; Dosimetry estimate (OLINDA), Thymus [1]: 1.15E−02; Dosimetry estimate (OLINDA), Thyroid [1]: 1.03E−02; Dosimetry estimate (OLINDA), Upper large intestine wall [1]: 1.17E−02; Dosimetry estimate (OLINDA), Urinary bladder wall [1]: 8.89E−02; Dosimetry estimate (OLINDA), Uterus [1]: 1.33E−02; Dosimetry estimate (OLINDA), Total body [1]: 1.19E−02; Decline of tumor uptake (washout) from 1 h to 3 h after injection (tumor lesions [2]): 75%; Uptake by tumors, average SUVmax (tumor lesions [3]): 8.37; Tumor uptake, average SUVmax (tumor lesions [3]; [6]): 7.37; Unspecific uptake in locations of wound healing after surgical intervention, average SUVmax [4]: 7.07; Background uptake in brain, average SUVmax [4, 6]: 0.32; Background uptake in liver, average SUVmax [4, 6]: 1.69; Background uptake in oral/pharyngeal mucosa, average SUVmax [4, 6]: 2.57; Uptake in all other organs compared with 18F-FDG ([4]; organs other than brain, liver, oral/pharyngeal mucosa, 6 patients): no significant difference"
O=C([O-])CN(CCN(CC(=O)[O-])Cc1cc(CCC(=O)NCCCCCC(=O)NCCCC[C@H](NC(=O)N[C@@H](CCC(=O)O)C(=O)O)C(=O)O)ccc1[O-])Cc1cc(CCC(=O)O)ccc1[O-].[68Ga+3].[OH3+] [^68Ga-PSMA-11],–,–,–,–,–,–,–,–,–,–,–,–,–,–,–,–,–,–,–,–,Effective dose [5]: 1.6–2.4 mSv/100 MBq
O=C([O-])CN1CCN(CC(=O)[O-])CCN(CC(=O)NC[C@H]2CC[C@H](C(=O)N[C@@H](Cc3ccc4ccccc4c3)C(=O)NCCCC[C@H](NC(=O)N[C@@H](CCC(=O)O)C(=O)O)C(=O)O)CC2)CCN(CC(=O)[O-])CC1.[68Ga+3] [^68Ga-PSMA-617],–,–,–,–,–,–,–,–,–,–,–,–,–,–,–,–,–,–,–,–,Effective dose ([5]; no reference of its own printed): 2.1 mSv/100 MBq
